The subject of assay [1] is HCV genotype 1a (H77 strain) replicon in HUH-7 cells. Kind of assay: HCV replicon luciferase reporter assay, genotype 1a. The note with it: Hepatitis C virus, Huh-7, 72 h, HCV genotype 1a replicon luciferase assay, 3 days incubation, range class, read-out: LE_1a (EC50, range). Format: cell-based. The method in brief: (§1)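 Replicon inhibition for both genotypes was measured as Renilla luciferase signal (EnduRen, 7.5 μM final, 2 h) after 3-day, 37° C exposure of replicon-bearing HUH-7 cells in 4% FCS DMEM, 0.5% DMSO. The 1b construct carries S1179I; the 1a H77 construct carries P1496L and S2204I. Twenty-point, 3-fold dilutions were fitted four-parametrically for EC50, and CC50 was taken from multiplexed Cell Titer-Blue.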
For orientation: In antiviral work, replicon cells carry a viral genome segment that copies itself.

The test system of assay [2] is HCV genotype 1b (Con1) replicon in HUH-7 cells. Kind of assay: HCV replicon luciferase reporter assay, genotype 1b. Format: cell-based. As to conditions: Hepatitis C virus, Huh-7, 72 h, HCV genotype 1b replicon luciferase assay, 3 days incubation, range class, read-out: LE_1b (EC50, range). The gist of the method:
as §1

The structures appear in SMILES notation. A value given as a limit tells only on which side of the number the result lay.

EC50 data for twelve molecules are collected here from patent US9499550B2 (BRISTOL-MYERS SQUIBB COMPANY, priority 2012, dated 2016).

A word on the EC50: it is the concentration giving half of the maximal effect. On to `COc1ccc2c(O[C@@H]3C[C@H]4C(=O)N[C@]5(C(=O)NS(=O)(=O)C6(C)CC6)C[C@H]5/C=C\CC[C@H](C)C[C@@H](C)[C@H](NC(=O)OC(C)(C)C)C(=O)N4C3)nc(N(C)C)nc2c1` [Compound 3001, tert-butyl ((2R,6S,7R,9S,13aS,14aR,16aS,Z)-2-((2-(dimethylamino)-7-methoxyquinazolin-4-yl)oxy)-7,9-dimethyl-14a-(((1-methylcyclopropyl)sulfonyl)carbamoyl)-5,16-dioxo-1,2,3,5,6,7,8,9,10,11,13a,14,14a,15,16,16a-hexadecahydrocyclopropa[e]pyrrolo[1,2-a][1,4]diazacyclopentadecin-6-yl)carbamate], for which the EC50 in assay [1] and in assay [2] was less than 5.46 nM each time.
Take `COc1ccc2c(O[C@@H]3C[C@H]4C(=O)N[C@]5(C(=O)NS(=O)(=O)C6(C)CC6)C[C@H]5/C=C\CC[C@@H](C)C[C@@H](C)[C@H](NC(=O)OC(C)(C)C)C(=O)N4C3)nc(N(C)C)nc2c1` [Compound 3002, tert-butyl ((2R,6S,7R,9R,13aS,14aR,16aS,Z)-2-((2-(dimethylamino)-7-methoxyquinazolin-4-yl)oxy)-7,9-dimethyl-14a-(((1-methylcyclopropyl)sulfonyl)carbamoyl)-5,16-dioxo-1,2,3,5,6,7,8,9,10,11,13a,14,14a,15,16,16a-hexadecahydrocyclopropa[e]pyrrolo[1,2-a][1,4]diazacyclopentadecin-6-yl)carbamate]: the EC50 in assay [1] and in assay [2] was less than 5.46 nM throughout.
For the molecule `COc1ccc2c(O[C@@H]3C[C@H]4C(=O)N[C@]5(C(=O)NS(=O)(=O)C6(C)CC6)C[C@H]5/C=C\CC[C@H](C)C[C@@H](C)[C@H](NC(=O)OC(C)(C)C(F)(F)F)C(=O)N4C3)nc(N(C)C)nc2c1` [Compound 3003, 1,1,1-trifluoro-2-methylpropan-2-yl((2R,6S,7R,9S,13aS,14aR,16aS,Z)-2-((2-(dimethylamino)-7-methoxyquinazolin-4-yl)oxy)-7,9-dimethyl-14a-(((1-methylcyclopropyl)sulfonyl)carbamoyl)-5,16-dioxo-1,2,3,5,6,7,8,9,10,11,13a,14,14a,15,16,16a-hexadecahydrocyclopropa[e]pyrrolo[1,2-a][1,4]diazacyclopentadecin-6-yl)carbamate], the EC50 in assay [1] and in assay [2] was less than 5.46 nM throughout.
For `COc1ccc2c(O[C@@H]3C[C@H]4C(=O)N[C@]5(C(=O)NS(=O)(=O)C6(C)CC6)C[C@H]5/C=C\CC[C@@H](C)C[C@@H](C)[C@H](NC(=O)OC(C)(C)C(F)(F)F)C(=O)N4C3)nc(N(C)C)nc2c1` [Compound 3004, 1,1,1-trifluoro-2-methylpropan-2-yl((2R,6S,7R,9R,13aS,14aR,16aS,Z)-2-((2-(dimethylamino)-7-methoxyquinazolin-4-yl)oxy)-7,9-dimethyl-14a-(((1-methylcyclopropyl)sulfonyl)carbamoyl)-5,16-dioxo-1,2,3,5,6,7,8,9,10,11,13a,14,14a,15,16,16a-hexadecahydrocyclopropa[e]pyrrolo[1,2-a][1,4]diazacyclopentadecin-6-yl)carbamate], the EC50 in assay [1] and in assay [2] was less than 5.46 nM each time.
With `COc1ccc2c(O[C@@H]3C[C@H]4C(=O)N[C@]5(C(=O)NS(=O)(=O)C6(CF)CC6)C[C@H]5/C=C\CC[C@H](C)C[C@@H](C)[C@H](NC(=O)OC(C)(C)C)C(=O)N4C3)nc(N(C)C)nc2c1` [Compound 3005, tert-butyl ((2R,6S,7R,9S,13aS,14aR,16aS,Z)-2-((2-(dimethylamino)-7-methoxyquinazolin-4-yl)oxy)-14a-(((1-(fluoromethyl)cyclopropyl)sulfonyl)carbamoyl)-7,9-dimethyl-5,16-dioxo-1,2,3,5,6,7,8,9,10,11,13a,14,14a,15,16,16a-hexadecahydrocyclopropa[e]pyrrolo[1,2-a][1,4]diazacyclopentadecin-6-yl)carbamate], the EC50 in assay [1] and in assay [2] was 4.82 to 103 nM each time.
For the molecule `COc1ccc2c(O[C@@H]3C[C@H]4C(=O)N[C@]5(C(=O)NS(=O)(=O)C6(CF)CC6)C[C@H]5/C=C\CC[C@@H](C)C[C@@H](C)[C@H](NC(=O)OC(C)(C)C)C(=O)N4C3)nc(N(C)C)nc2c1` [Compound 3006, tert-butyl ((2R,6S,7R,9R,13aS,14aR,16aS,Z)-2-((2-(dimethylamino)-7-methoxyquinazolin-4-yl)oxy)-14a-(((1-(fluoromethyl)cyclopropyl)sulfonyl)carbamoyl)-7,9-dimethyl-5,16-dioxo-1,2,3,5,6,7,8,9,10,11,13a,14,14a,15,16,16a-hexadecahydrocyclopropa[e]pyrrolo[1,2-a][1,4]diazacyclopentadecin-6-yl)carbamate], the EC50 in assay [1] and in assay [2] was less than 5.46 nM throughout.
`COc1ccc2c(O[C@@H]3C[C@H]4C(=O)N[C@]5(C(=O)NS(=O)(=O)C6(C)CC6)C[C@H]5/C=C\CC[C@H](C)C[C@@H](C)[C@H](NC(=O)OC(C)(C)C)C(=O)N4C3)nc(-c3ccc(OC(C)C)cc3)nc2c1` [Compound 3007, tert-butyl ((2R,6S,7R,9S,13aS,14aR,16aS,Z)-2-((2-(4-isopropoxyphenyl)-7-methoxyquinazolin-4-yl)oxy)-7,9-dimethyl-14a-(((1-methylcyclopropyl)sulfonyl)carbamoyl)-5,16-dioxo-1,2,3,5,6,7,8,9,10,11,13a,14,14a,15,16,16a-hexadecahydrocyclopropa[e]pyrrolo[1,2-a][1,4]diazacyclopentadecin-6-yl)carbamate]: the EC50 in assay [1] and in assay [2] was less than 5.46 nM each time.
Consider `COc1ccc2c(O[C@@H]3C[C@H]4C(=O)N[C@]5(C(=O)NS(=O)(=O)C6(C)CC6)C[C@H]5/C=C\CC[C@@H](C)C[C@@H](C)[C@H](NC(=O)OC(C)(C)C)C(=O)N4C3)nc(-c3ccc(OC(C)C)cc3)nc2c1` [Compound 3008, tert-butyl ((2R,6S,7R,9R,13aS,14aR,16aS,Z)-2-((2-(4-isopropoxyphenyl)-7-methoxyquinazolin-4-yl)oxy)-7,9-dimethyl-14a-(((1-methylcyclopropyl)sulfonyl)carbamoyl)-5,16-dioxo-1,2,3,5,6,7,8,9,10,11,13a,14,14a,15,16,16a-hexadecahydrocyclopropa[e]pyrrolo[1,2-a][1,4]diazacyclopentadecin-6-yl)carbamate], for which the EC50 in assay [1] and in assay [2] was less than 5.46 nM throughout.
Turning to `COc1ccc2c(O[C@@H]3C[C@H]4C(=O)N[C@]5(C(=O)NS(=O)(=O)C6(CF)CC6)C[C@H]5/C=C\CC[C@H](C)C[C@@H](C)[C@H](NC(=O)OC(C)(C)C(F)(F)F)C(=O)N4C3)nc(N(C)C)nc2c1` [Compound 3009, 1,1,1-trifluoro-2-methylpropan-2-yl((2R,6S,7R,9S,13aS,14aR,16aS,Z)-2-((2-(dimethylamino)-7-methoxyquinazolin-4-yl)oxy)-14a-(((1-(fluoromethyl)cyclopropyl)sulfonyl)carbamoyl)-7,9-dimethyl-5,16-dioxo-1,2,3,5,6,7,8,9,10,11,13a,14,14a,15,16,16a-hexadecahydrocyclopropa[e]pyrrolo[1,2-a][1,4]diazacyclopentadecin-6-yl)carbamate], the EC50 in assay [1] and in assay [2] was 4.82 to 103 nM throughout.
Take `COc1ccc2c(O[C@@H]3C[C@H]4C(=O)N[C@]5(C(=O)NS(=O)(=O)C6(CF)CC6)C[C@H]5/C=C\CC[C@@H](C)C[C@@H](C)[C@H](NC(=O)OC(C)(C)C(F)(F)F)C(=O)N4C3)nc(N(C)C)nc2c1` [Compound 3010, 1,1,1-trifluoro-2-methylpropan-2-yl((2R,6S,7R,9R,13aS,14aR,16aS,Z)-2-((2-(dimethylamino)-7-methoxyquinazolin-4-yl)oxy)-14a-(((1-(fluoromethyl)cyclopropyl)sulfonyl)carbamoyl)-7,9-dimethyl-5,16-dioxo-1,2,3,5,6,7,8,9,10,11,13a,14,14a,15,16,16a-hexadecahydrocyclopropa[e]pyrrolo[1,2-a][1,4]diazacyclopentadecin-6-yl)carbamate]: the EC50 in assay [1] and in assay [2] was less than 5.46 nM in each case.
Turning to `COc1ccc2c(O[C@@H]3C[C@H]4C(=O)N[C@]5(C(=O)NS(=O)(=O)C6(C)CC6)C[C@H]5/C=C\CC[C@H](C)C[C@@H](C)[C@H](NC(=O)OC(C)(C)C(F)(F)F)C(=O)N4C3)nc(-c3ccc(OC(C)C)cc3)nc2c1` [Compound 3011, 1,1,1-trifluoro-2-methylpropan-2-yl((2R,6S,7R,9S,13aS,14aR,16aS,Z)-2-((2-(4-isopropoxyphenyl)-7-methoxyquinazolin-4-yl)oxy)-7,9-dimethyl-14a-(((1-methylcyclopropyl)sulfonyl)carbamoyl)-5,16-dioxo-1,2,3,5,6,7,8,9,10,11,13a,14,14a,15,16,16a-hexadecahydrocyclopropa[e]pyrrolo[1,2-a][1,4]diazacyclopentadecin-6-yl)carbamate], the EC50 in assay [1] was 4.82 to 103 nM; in assay [2] it was less than 5.46 nM.
The like results for `COc1ccc2c(O[C@@H]3C[C@H]4C(=O)N[C@]5(C(=O)NS(=O)(=O)C6(C)CC6)C[C@H]5/C=C\CC[C@@H](C)C[C@@H](C)[C@H](NC(=O)OC(C)(C)C(F)(F)F)C(=O)N4C3)nc(-c3ccc(OC(C)C)cc3)nc2c1` [Compound 3012, 1,1,1-trifluoro-2-methylpropan-2-yl((2R,6S,7R,9R,13aS,14aR,16aS,Z)-2-((2-(4-isopropoxyphenyl)-7-methoxyquinazolin-4-yl)oxy)-7,9-dimethyl-14a-(((1-methylcyclopropyl)sulfonyl)carbamoyl)-5,16-dioxo-1,2,3,5,6,7,8,9,10,11,13a,14,14a,15,16,16a-hexadecahydrocyclopropa[e]pyrrolo[1,2-a][1,4]diazacyclopentadecin-6-yl)carbamate] were, in that order, less than 5.46 nM and less than 5.46 nM.
